Patent US9701677B2, “Fused pyrimidine compounds” (Gilead Sciences, Inc., priority 2014, dated 2017)
Like-named read-outs stand apart in the source and are kept apart here.

How the values were obtained:
Format in all cases: cell-based
[1] = system: HIV-1 reverse transcriptase mutant Y181C; test: High throughput cytopathic effect assay in MT-4 cells, Y181C mutant; settings: for EC50: Human immunodeficiency virus 1, MT4, 120 h, read-out: MT4 EC50 (nM) against Y181C; for FC against mutant Y181C: fold change of EC50, Y181C versus w.t. assay 2
Excerpt: (§1) Compounds were screened in a miniaturized, high throughput cytopathic effect assay for activity against HIV-1 HBX2 (wild type) and HIV-1 reverse transcriptase mutants K103N and Y181C. In Tables 1 and 2 below, “w.t.” refers to results of the tested compounds run with the wildtype 1 and “w.t. assay 2” refers results of the tested compounds run with the wildtype on the same day as the testing of the compounds with the mutants. Thus, “w.t. assay 2” was run under the same conditions as the testing of the compounds with the mutants and provides a direct comparison with the results from the testing with the mutants.
(§2) Ten-point serial dilutions of compounds with half-log step size were generated in DMSO. AZT (5 μM) was used as the positive control and DMSO as the negative control. The Echo acoustic dispenser was used to deliver 200 nL of serially diluted compound into sterile 384 well tissue culture assay plates. Two million MT-4 cells were incubated with each of the 3 viruses at MOI of 0.0005 in separate 1 mL infection tubes for 1 hour at 37° C. The cells were diluted in cell culture medium (RPMI+10% FBS) to 50,000 cells/mL. The infected cells were added to 384 well assay plates containing serially dilute compounds. Assay plates were incubated for 5 days in a humidified incubator set at 37° C. and 5% CO2. To measure the cytopathic effect of HIV, 40 μL Cell TiterGlo was added to each well and the resulting luminescence signal is read with the Envision plate reader (Perkin Elmer). Data were normalized to positive and negative controls in each plate and expressed as % CPE Protection. […]

[2] = system: HIV-1 reverse transcriptase mutant K103N; test: High throughput cytopathic effect assay in MT-4 cells, K103N mutant; settings: for EC50: Human immunodeficiency virus 1, MT4, 120 h, read-out: MT4 EC50 (nM) against K103N; for FC against mutant K103N: fold change of EC50, K103N versus w.t. assay 2
Excerpt: as §1, §2

HIV-1 HBX2 (wild type) = test: High throughput cytopathic effect assay in MT-4 cells, wild type HIV-1
Excerpt: as §1, §2

hERG channels = target: T1, hERG channels (Homo sapiens, UniProt Q12809); test: hERG assay, whole cell recordings in CHO cell line stably expressing hERG channels; settings: CHO cells expressing hERG, tail current, Table 3
T1 construct: host or cells: CHO cell line stably expressing hERG
Experimental: Cells were cultured in DMEM/F12 containing 10% FBS, 1% penicillin/streptomycin and 500 μg/ml G418. Before testing, cells were harvested using Accumax (Innovative Cell Technologies).
Cells were voltage clamped at a holding potential of −80 mV. The hERG current was then activated by a depolarizing step to −50 mV for 300 ms. This first step at −50 mV was used as a baseline for measuring peak amplitude of the tail current. Next, a voltage step to +20 mV was applied for 5 s to activate the channels. Finally, a step back to −50 mV for 5 s removed activation and the deactivating tail current was recorded.
Solutions were mixed by sonication for 20 min, followed by vigorous vortexing. Prior to testing, compounds were diluted to test concentrations in glass vials using External Solution. Dilutions were prepared no longer than 20 min prior to use.
External solution containing 0.1% DMSO (vehicle) was applied to the cells to establish a baseline. […] Test article solutions were added to cells in 4 separate additions. Cells were kept in test solution until effect of the test article reached steady state, to a maximum of 12 min. Next, 1 μM cisapride (positive control) was added. Finally, washout with External Solution was performed until the recovery current reached steady state.

[3] = Human immunodeficiency virus 1, MT4, 120 h, MT-4 cells, HIV-1 wild type, 5 days, CPE protection (Cell TiterGlo), read-out: MT4 EC50 (nM) against w.t.
[4] = Human immunodeficiency virus 1, MT4, read-out: MT4 EC50 (nM) against w.t. assay 2

T1 sequence (Q12809 whole entry): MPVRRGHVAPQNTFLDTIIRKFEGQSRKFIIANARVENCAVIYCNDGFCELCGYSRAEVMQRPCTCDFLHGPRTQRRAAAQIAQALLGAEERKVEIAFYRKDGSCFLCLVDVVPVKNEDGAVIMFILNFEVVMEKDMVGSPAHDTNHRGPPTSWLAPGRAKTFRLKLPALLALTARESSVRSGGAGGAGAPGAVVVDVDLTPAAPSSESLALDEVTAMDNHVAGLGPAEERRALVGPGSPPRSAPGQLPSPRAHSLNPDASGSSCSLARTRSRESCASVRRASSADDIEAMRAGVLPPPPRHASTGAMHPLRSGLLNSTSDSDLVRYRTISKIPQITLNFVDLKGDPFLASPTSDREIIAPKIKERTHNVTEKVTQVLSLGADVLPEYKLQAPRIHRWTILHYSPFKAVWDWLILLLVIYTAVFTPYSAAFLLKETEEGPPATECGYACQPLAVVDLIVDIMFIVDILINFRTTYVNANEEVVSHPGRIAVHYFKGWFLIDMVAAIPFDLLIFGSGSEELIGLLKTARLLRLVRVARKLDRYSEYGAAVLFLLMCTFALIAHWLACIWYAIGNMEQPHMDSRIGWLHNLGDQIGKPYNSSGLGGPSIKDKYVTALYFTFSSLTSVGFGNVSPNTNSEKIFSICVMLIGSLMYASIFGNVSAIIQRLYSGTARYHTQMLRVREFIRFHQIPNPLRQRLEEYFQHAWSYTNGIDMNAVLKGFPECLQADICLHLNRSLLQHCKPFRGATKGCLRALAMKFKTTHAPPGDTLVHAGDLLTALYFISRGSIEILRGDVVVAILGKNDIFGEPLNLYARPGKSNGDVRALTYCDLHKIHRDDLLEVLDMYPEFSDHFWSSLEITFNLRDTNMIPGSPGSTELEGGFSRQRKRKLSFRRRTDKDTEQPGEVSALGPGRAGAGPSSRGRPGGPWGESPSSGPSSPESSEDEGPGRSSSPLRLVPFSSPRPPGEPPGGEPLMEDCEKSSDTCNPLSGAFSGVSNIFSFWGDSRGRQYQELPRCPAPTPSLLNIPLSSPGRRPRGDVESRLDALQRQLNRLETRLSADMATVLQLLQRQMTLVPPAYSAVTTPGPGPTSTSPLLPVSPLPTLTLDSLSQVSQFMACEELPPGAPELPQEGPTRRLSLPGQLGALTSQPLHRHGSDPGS

SMILES | EC50 [1] | FC against mutant Y181C [1] | EC50 [2] | FC against mutant K103N [2] | EC50 (HIV-1 HBX2 (wild type); [3]) | EC50 (HIV-1 HBX2 (wild type); [4]) | IC50 (hERG channels)
Cc1cc(/C=C/C#N)cc(C)c1-c1nccc2c(N)nc(Nc3ccc(C#N)cc3)nc12 [Compound 1, (E)-4-((4-Amino-8-(4-(2-cyanovinyl)-2,6-dimethylphenyl)pyrido[3,4-d]pyrimidin-2-yl)amino)benzonitrile] | 5.5 nM | 4.0 | 2.3 nM | 1.7 | 2.1 nM | 1.4 nM | 
Cc1cc(/C=C/C#N)cc(C)c1-c1cncc2c(N)nc(Nc3ccc(C#N)cc3)nc12 [Compound 2, (E)-4-((4-Amino-8-(4-(2-cyanovinyl)-2,6-dimethylphenyl)pyrido[4,3-d]pyrimidin-2-yl)amino)benzonitrile] | 40.4 nM | 3.2 | 14.3 nM | 1.1 | 6.1 nM | 12.6 nM | 1700 nM
Cc1cc(/C=C/C#N)cc(C)c1-c1ccnc2c(N)nc(Nc3ccc(C#N)cc3)nc12 [Compound 3, (E)-4-((4-amino-8-(4-(2-cyanovinyl)-2,6-dimethylphenyl)pyrido[3,2-d]pyrimidin-2-yl)amino)benzonitrile] |  |  |  |  | 4.6 nM |  | 
